Laboratory results: article PMC6186498 (Toxicology, 2018)
Where two headings read alike, the source gives them in different places. Marks after values point to notes of the source that are not given here.

Assays:
[1] = cited from earlier work; for carcinogenicity classification by IARC: ref Guha et al. 2012; for carcinogenicity classification by US EPA: ref U.S. EPA 2011a, b
[2] = cited from earlier work
[3] = for TCA(%), percentage of administered TCE excreted in urine / TCOH (%): This study (% estimated), 800 mg/kg oral, M; for flux through oxidation metabolism pathway over that through conjugation: across all mouse strains examined; for overall flux of glutathione conjugation expressed as dose: after equimolar treatment of TCE or PCE; for yield through glutathione conjugation pathway as % of that through oxidative pathway: range given for TCE and PCE together, approximately; for fraction of the total administered dose remaining unmetabolized until excretion: model estimate at steady state
[4] = at low doses; ref Chiu et al. 2009; cited from earlier work
[5] = human, cited from earlier work
[6] = cited from earlier work; for inter-strain variability of TCA levels in liver, GSD: Collaborative Cross mouse population
kidney = conditions: cited from earlier work
[7] = 200 mg/kg stomach tube, rat Wistar, F, ref Dekant et al. 1984
[8] = 500 mg/kg oral, rat Osborne-Mendal, M, ref Green and Prout 1985
[9] = 600 mg/kg oral, rat Sprague-Dawley, M, ref Larson and Bull 1992
[10] = 100 ppm inhalation, rat, PBPK model estimate, ref Chiu et al 2009
[11] = mean ± SD, average of all strains, single oral dose 6 mmole/kg
[12] = model-derived AUCs across strains
[13] = range over strains, model estimate
[14] = 1 ppm inhalation, M, PBPK model estimate, ref Chiu et al 2009
[15] = 1 ppm inhalation, M, ref Chiu et al 2006
[16] = 70 ppm inhalation, M, ref Monster 1976
[17] = 70 ppm inhalation, M, ref Monster 1979
[18] = 200 mg/kg stomach tube, mice NMRI, F, ref Dekant et al. 1984
[19] = 500 mg/kg oral, mice B6C3F1/J, M, ref Green and Prout 1985
[20] = 600 mg/kg oral, mice B6C3F1/J, M, ref Larson and Bull 1992
[21] = 1000 mg/kg oral, mice, PBPK model estimate, ref Chiu et al 2009
[22] = 2100 mg/kg oral, mice B6C3F1/J, M, PBPK model estimate, ref Chiu et al 2014
[23] = 100 mg/kg oral, rat, PBPK model estimate, ref Chiu et al 2011
[24] = 10 ppm inhalation, rat, PBPK model estimate, ref Chiu et al 2011
[25] = 100 mg/kg oral, PBPK model estimate, ref Chiu et al 2011
[26] = 10 ppm inhalation, PBPK model estimate, ref Chiu et al 2011
[27] = 100 mg/kg oral, mice, PBPK model estimate, ref Chiu et al 2011
[28] = 300 mg/kg oral, mice C57BL/6J, M, ref Cichocki et al 2017
[29] = 10 ppm inhalation, mice, PBPK model estimate, ref Chiu et al 2011

SMILES: ClC=C(Cl)Cl [TCE, Trichloroethylene]
- carcinogenicity classification by IARC [1]: carcinogenic to humans
- carcinogenicity classification by US EPA [1]: carcinogenic to humans
- TCA(%), percentage of total urinary metabolite calculated based on radioactivity [2, 7]: 15.3 ^* %
- TCOH (%), percentage of total urinary metabolite calculated based on radioactivity [2, 7]: 73.6 ^* %
- TCA(%), percentage of total urinary metabolite calculated based on radioactivity [2, 8]: 6.3 ^* %
- TCOH (%), percentage of total urinary metabolite calculated based on radioactivity [2, 8]: 90.1 ^* %
- TCA(%), percentage of administered TCE excreted in urine [2, 9]: 4.1%
- TCOH (%) [2, 9]: 23.2%
- GSH conjugation (%) [2, 10]: 0.06%
- Oxidation to GSH [2, 10]: 666.7
- TCA(%) and TCOH (%), one cell spanning both columns [2, 10]: 40%
- TCA(%), percentage of administered TCE excreted in urine ([2]; 505 ppm inhalation, rat F344, M, PBPK model estimate, ref Fisher et al. 1991): 6%
- AUC0–36 of TCE as compared to AUC0–36 of PCE, kidney ([3]; B6C3F1/J mice, kidney): 2.0%
- AUC0–36 of TCE as compared to AUC0–36 of PCE, liver ([3]; B6C3F1/J mice, liver): 43.9%
- AUC0–36 of TCE as compared to AUC0–36 of PCE, lung ([3]; B6C3F1/J mice, lung): 36.2%
- AUC0–36 of TCE as compared to AUC0–36 of PCE, serum ([3]; B6C3F1/J mice, serum): 39.8%
- TCA(%), percentage of administered TCE excreted in urine ([3]; mice B6C3F1/J): 5.8%
- TCOH (%) ([3]; mice B6C3F1/J): 21%
- TCA(%), percentage of administered TCE excreted in urine ([3]; mice C57BL/6J): 3.5%
- TCOH (%) ([3]; mice C57BL/6J): 12%
- TCA(%), percentage of administered TCE excreted in urine ([3]; mice NZW/LacJ): 7.1%
- TCOH (%) ([3]; mice NZW/LacJ): 31%
- flux through oxidation metabolism pathway over that through conjugation [3]: 1,200–3,800 fold
- overall flux of glutathione conjugation expressed as dose [3]: 0.13 to 0.17 mg/kg
- elimination constant for n-acetylcysteine conjugates in TCE-treated as compared to PCE-treated mice ([3]; higher): 1.5 fold
- TCE elimination rate constant relative to that for PCE ([3]; higher than PCE): 2.8 fold
- formation rate constant of TCA (KTCA) in TCE-treated versus PCE-treated mice ([3]; higher than in PCE-treated mice): 2.4 fold
- First order rate constant, Elimination NAcT/DCVC→ [3, 11]: 23.8 ± 10.5 h⁻¹
- First order rate constant, Elimination T/PCE→ [3, 11]: 0.49 ± 0.12 h⁻¹
- First order rate constant, Elimination TCA→ [3, 11]: 0.05 ± 0.02 h⁻¹
- First order rate constant, Elimination TCOH→ [3, 11]: 0.49 ± 0.13 h⁻¹
- First order rate constant, GSH conjugation D/TCVC→NAcD/TCVC [3, 11]: 73.4 ± 17.4 h⁻¹
- First order rate constant, GSH conjugation D/TCVC→Reactive species [3, 11]: 1.69 ± 0.45 h⁻¹
- First order rate constant, GSH conjugation D/TCVG→D/TCVC [3, 11]: 0.30 ± 0.07 h⁻¹
- First order rate constant, GSH conjugation T/PCE→D/TCVG [3, 11]: (3.5±1.1)*10^−6 h^−1
- First order rate constant, Oxidation T/PCE→TCA [3, 11]: 0.034 ± 0.010 h⁻¹
- First order rate constant, Oxidation T/PCE→TCOH [3, 11]: 0.13 ± 0.04 h⁻¹
- inter-strain variability of AUC of glutathione conjugation metabolites, GSD [3, 12]: 1.04−1.92
- inter-strain variability of AUC of oxidative metabolites (TCA and TCOH), GSD [3, 12]: 1.24−2.04
- AUC0–36 of TCE as compared to AUC0–36 of PCE, brain ([3]; mouse, in vivo): 29.0%
- elimination rate constant (Ke) of TCA in TCE-treated mice as % of that in PCE-treated mice ([3]; mouse, in vivo): 62.5%
- yield through glutathione conjugation pathway as % of that through oxidative pathway [3]: 0.033%−3.3
- portion of the parent compound that undergoes metabolism ([3]; range over strains): 15.7%−38.3
- Excreted TCA, % of the total dose [3, 13]: 3.5%−7.1
- TCOH, % of the total dose [3, 13]: 12.2−31.2%
- estimated fraction of the reactive species formation from cysteine conjugates [3, 13]: 2.1% to 2.4
- fraction of the total administered dose remaining unmetabolized until excretion ([3]; range over strains): 61.7% to 84.3
- AUC0–36 of TCA in TCE-treated mice as compared to PCE-treated mice ([3]; serum, liver, brain, and lung, except for C57BL/6J mice, higher): 1.2–1.7 fold
- glutathione conjugation metabolites of TCE in rodents as % of that in humans [4]: approximately 1%
- GSH conjugation (%) [5, 14]: 5%
- Oxidation to GSH [5, 14]: 7.6
- TCA(%) and TCOH (%), one cell spanning both columns [5, 14]: 38%
- TCA(%), percentage of administered TCE excreted in urine [5, 15]: 1–2%
- TCOH (%) [5, 15]: 16–28%
- TCA(%), percentage of administered TCE excreted in urine [5, 16]: 18%
- TCOH (%) [5, 16]: 39%
- TCA(%), percentage of administered TCE excreted in urine [5, 17]: 21%
- TCOH (%) [5, 17]: 43%
- TCA(%), percentage of total urinary metabolite calculated based on radioactivity [6, 18]: 0.1 ^* %
- TCOH (%), percentage of total urinary metabolite calculated based on radioactivity [6, 18]: 94.3 ^* %
- TCA(%), percentage of total urinary metabolite calculated based on radioactivity [6, 19]: 7.2 ^* %
- TCOH (%), percentage of total urinary metabolite calculated based on radioactivity [6, 19]: 91.1 ^* %
- TCA(%), percentage of administered TCE excreted in urine [6, 20]: 3.9%
- TCOH (%) [6, 20]: 31%
- GSH conjugation (%) [6, 21]: 0.2%
- Oxidation to GSH [6, 21]: 450
- TCA(%) and TCOH (%), one cell spanning both columns [6, 21]: 90%
- GSH conjugation (%) [6, 22]: 0.065%
- Oxidation to GSH [6, 22]: 290
- TCA(%), percentage of administered TCE excreted in urine [6, 22]: 4.4%
- inter-strain variability of TCA levels in liver, GSD ([6]; single oral dose of TCE, ref Venkatratnam et al. 2017): 2.24

SMILES: N[C@@H](CSC(Cl)=CCl)C(=O)O [DCVC, S-(1,2-dichlorovinyl)-cysteine]
- lowest dose with some adverse kidney effects observable (kidney; ref Shirai et al. 2012): 1 mg/kg

SMILES: OCC(Cl)(Cl)Cl [TCOH, trichloroethanol]
- AUC0–36 of TCOH compared to that of TCA, brain ([3]; TCE-treated mice, brain): 22.7–53.1%
- AUC0–36 of TCOH compared to that of TCA, kidney ([3]; TCE-treated mice, kidney): 266–322%
- tissue in which TCOH is most abundant ([3]; TCE-treated mice, liver, kidney, brain, lung, serum examined): most abundant in kidney
- AUC0–36 of TCOH compared to that of TCA, lung ([3]; TCE-treated mice, lung): 49.8–68.7%
- AUC0–36 of TCOH compared to that of TCA, serum ([3]; TCE-treated mice, serum): 35.7–60%

SMILES: ClC(Cl)=C(Cl)Cl [PCE, tetrachloroethylene]
- carcinogenicity classification by IARC [1]: probably carcinogenic to humans
- carcinogenicity classification by US EPA [1]: likely to be a human carcinogen
- GSH conjugation (%) [2, 23]: 0.6%
- Oxidation to GSH [2, 23]: 14.8
- TCA (%), percentage of administered dose excreted in urine [2, 23]: 8.9%
- Oxidation to GSH ([2]; 10 ppm inhalation, rat Wistar, M&F, ref Volkel et al 1998): 623.6
- GSH conjugation (%) [2, 24]: 0.2%
- Oxidation to GSH [2, 24]: 19.5
- TCA (%), percentage of administered dose excreted in urine [2, 24]: 3.9%
- Oxidation to GSH ([2]; 20 ppm inhalation, rat Wistar, M&F, ref Volkel et al 1998): 540.6
- Oxidation to GSH ([2]; 40 ppm inhalation, rat Wistar, M&F, ref Volkel et al 1998): 316.4
- flux through oxidation metabolism pathway over that through conjugation [3]: 26–34 fold
- overall flux of glutathione conjugation expressed as dose [3]: 2.9 to 4.5 mg/kg
- First order rate constant, Elimination T/PCE→ [3, 11]: 0.17 ± 0.04 h⁻¹
- First order rate constant, GSH conjugation T/PCE→D/TCVG [3, 11]: (460±230)*10^−6 h^−1
- First order rate constant, Oxidation T/PCE→TCA [3, 11]: 0.014 ± 0.003 h⁻¹
- yield through glutathione conjugation pathway as % of that through oxidative pathway [3]: 0.033%−3.3
- portion of the parent compound that undergoes metabolism ([3]; range over strains): 6.6%–9.7
- estimated fraction of the reactive species formation from cysteine conjugates [3, 13]: 46.7% to 52.6
- fraction of the total administered dose remaining unmetabolized until excretion ([3]; range over strains): 90.3% to 93.5
- GSH conjugation (%) [5, 25]: 18%
- Oxidation to GSH [5, 25]: 0.1
- TCA (%), percentage of administered dose excreted in urine [5, 25]: 1.8%
- TCA (%), percentage of administered dose excreted in urine [5, 15]: 0.2–0.8%
- Oxidation to GSH ([5]; 10 ppm inhalation, M&F, ref Volkel et al 1998): 107.7
- GSH conjugation (%) [5, 26]: 9.4%
- Oxidation to GSH [5, 26]: 0.1
- TCA (%), percentage of administered dose excreted in urine [5, 26]: 0.98%
- Oxidation to GSH ([5]; 20 ppm inhalation, M&F, ref Volkel et al 1998): 89.1
- Oxidation to GSH ([5]; 40 ppm inhalation, M&F, ref Volkel et al 1998): 96.3
- TCA (%), percentage of administered dose excreted in urine ([5]; 72 ppm inhalation, M, ref Monster 1979): 2%
- GSH conjugation (%) [6, 27]: 0.07%
- Oxidation to GSH [6, 27]: 500
- TCA (%), percentage of administered dose excreted in urine [6, 27]: 35%
- GSH conjugation (%) [6, 28]: 0.79%
- Oxidation to GSH [6, 28]: 7.5
- TCA (%), percentage of administered dose excreted in urine [6, 28]: 5.9%
- GSH conjugation (%) [6, 29]: 0.02%
- Oxidation to GSH [6, 29]: 600
- TCA (%), percentage of administered dose excreted in urine [6, 29]: 12%
- inter-strain variability of TCA levels in liver, GSD ([6]; single oral dose of PCE, ref Cichocki et al. 2017b): 1.64
- exhalation fraction of PCE ([6]; mice orally dosed with 500 mg/kg 14C-labelled PCE, ref Schumann et al. 1980): 82.6%

SMILES: N[C@@H](CSC(Cl)=C(Cl)Cl)C(=O)O [TCVC, S-(1,2,2-trichlorovinyl)-L-cysteine]
- doses at which most studies reported kidney effects (kidney; directly administered cysteine conjugates, acute, sub-acute and sub-chronic exposure, ref Birner et al. 1997, Shirai et al. 2012, Vaidya et al. 2003): above 10 mg/kg
- comparative nephrotoxicity of TCVC and DCVC (kidney; equimolar doses compared, ref Birner et al. 1997): more nephrotoxic than DCVC
